As usually defined, the EC50 is the concentration that produces a half-maximal response. Low readings indicate a more potent agent, high ones a less potent agent.

The structures appear in SMILES notation. Positions count from the first letter of the chain named.

The text below walks through data of paper PMC3170524 (Physiological research / Academia Scientiarum Bohemoslovaca, 2010).

Test in all cases: whole-cell patch clamp, peak current dose-response
Common to all, as to assay type: cell-based

For experiment [1], the target named is T1, rat P2X4R (Rattus norvegicus, UniProt P51577, C132T/C159T).
T1 sequence (P51577 1-388 C132T/C159T): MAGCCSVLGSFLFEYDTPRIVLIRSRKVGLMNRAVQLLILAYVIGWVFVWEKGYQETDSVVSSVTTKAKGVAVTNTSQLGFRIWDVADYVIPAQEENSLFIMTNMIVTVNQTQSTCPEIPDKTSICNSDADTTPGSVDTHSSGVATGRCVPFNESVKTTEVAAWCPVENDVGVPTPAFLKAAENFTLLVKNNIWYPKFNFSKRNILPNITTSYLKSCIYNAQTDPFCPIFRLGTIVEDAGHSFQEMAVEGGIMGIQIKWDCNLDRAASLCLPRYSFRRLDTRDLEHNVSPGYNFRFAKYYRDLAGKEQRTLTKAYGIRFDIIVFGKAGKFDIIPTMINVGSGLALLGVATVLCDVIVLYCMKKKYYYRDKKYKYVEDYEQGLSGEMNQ

Experiment [2] concerns the target T2, rat P2X4R (Rattus norvegicus, UniProt P51577, C217R).
T2 sequence (P51577 1-388 C217R): T1 sequence (P51577 1-388 C132T/C159T) with T132C, T159C, C217R

Experiment [3] addresses T3, rat P2X4R (Rattus norvegicus, UniProt P51577, C165T).
T3 sequence (P51577 1-388 C165T): T1 sequence (P51577 1-388 C132T/C159T) with T132C, T159C, C165T

Experiment [4] concerns the target T4, rat P2X4R (Rattus norvegicus, UniProt P51577, C116T/C165T).
T4 sequence (P51577 1-388 C116T/C165T): T1 sequence (P51577 1-388 C132T/C159T) with C116T, T132C, T159C, C165T

As to `Nc1ncnc2c1ncn2[C@@H]1O[C@H](COP(=O)(O)OP(=O)(O)OP(=O)(O)O)[C@@H](O)[C@H]1O` [ATP], the EC50 at rat P2X4R [1] was determined as 5.3 ± 0.8 µM; on rat P2X4R [2], 9.2 ± 2.3 µM; on rat P2X4R [3] it was 45 ± 3.8 µM; on rat P2X4R [4], 57 ± 19 µM.
